Measured values reported in patent US20200085789A1, “USE OF A PROTEASOME INHIBITOR FOR THE TREATMENT OF CENTRAL NERVOUS SYSTEM (CNS) CANCERS” (Celgene International II Sàrl, priority 2017, published 2020).
Where two headings read alike, the source gives them in different places.

Experiments:
[1] = Adverse events and dose-limiting toxicity (NCI-CTCAE v 4.03), MRZ ± BEV in recurrent grade IV malignant glioma patients; type: in vivo, human; details: treated with MRZ 0.8 mg/m^2 + BEV (N = 27)
From the text: An adverse event (AE) is any noxious, unintended, or untoward medical occurrence that may appear or worsen in a subject during the course of a study. […] Any worsening (i.e., any clinically significant adverse change in the frequency or intensity of a pre-existing condition) should be considered an AE.
The severity/intensity of AEs will be graded based upon the subject's symptoms according to the current active minor version of the Common Terminology Criteria for Adverse Events ( ).

[2] = Bevacizumab serum pharmacokinetics, peak and trough (Part 1 Phase 1); type: in vivo, human; details: for Cmax D 1: C1D1; for Cmax D 15 / Cmin D 15: C1D15
From the text: The drugs were infused on 28-Day Cycles.

[3] = system: WHO Grade IV malignant glioma; details: cited from earlier work
[4] = Day 0, 10 mg/kg dose (Gordon et al., 2001); cited from earlier work
[5] = Heiland (Freiburg, Germany), All Pts
[6] = Heiland (Freiburg, Germany), Methylated
[7] = Heiland (Freiburg, Germany), Unmethylated
[8] = Wick (EORTC 26101 P2), Methylated
[9] = Wick (EORTC 26101 P2), Unmethylated

## bevacizumab [reference compound]
[1]
  Dizziness related to the labelled drug(s), patients: 1
  Dysphonia related to the labelled drug(s): (37.0%)
  Dysphonia related to the labelled drug(s), patients: 10
  Epistaxis related to the labelled drug(s): (25.9%)
  Epistaxis related to the labelled drug(s), patients: 7
  Fall related to the labelled drug(s): (0.0%)
  Fall related to the labelled drug(s), patients: 0
  Fatigue related to the labelled drug(s): (66.7%)
  Fatigue related to the labelled drug(s), patients: 18
  Hallucination related to the labelled drug(s): (0.0%)
  Hallucination related to the labelled drug(s), patients: 0
  Headache related to the labelled drug(s): (22.2%)
  Headache related to the labelled drug(s), patients: 6
  Hypertension related to the labelled drug(s): (40.7%)
  Infusion site pain related to the labelled drug(s): (3.7%)
  Infusion site pain related to the labelled drug(s), patients: 1
  Muscular weakness related to the labelled drug(s): (3.7%)
  Muscular weakness related to the labelled drug(s), patients: 1
  Nausea related to the labelled drug(s): (7.4%)
  Platelet count decreased related to the labelled drug(s): (11.1%)
  Platelet count decreased related to the labelled drug(s), patients: 3
  Stomatitis related to the labelled drug(s): (7.4%)
  Upper-airway cough syndrome related to the labelled drug(s): (18.5%)
  Upper-airway cough syndrome related to the labelled drug(s), patients: 5
  Vomiting related to the labelled drug(s): (14.8%)
[2]; Day 15
  mean Cmin: 95 µg/mL
[2]; MRZ 0.7 mg/m^2 cohort
  Cmax D 1: 193 ± 8 (2) μg/mL
  Cmax D 15: 402 ± 123 (3) μg/mL
  Cmin D 15: 81.1 ± 17.4 (2) μg/mL
[2]; MRZ 0.8 mg/m^2 cohort
  Cmax D 1: 267 ± 13.3 (3) μg/mL
  Cmax D 15: 380 ± 56.5 (2) μg/mL
  Cmin D 15: 85.0 ± 9.87 (3) μg/mL
[2]; all dose cohorts, Day 1, 10 mg/kg
  mean Cmax: 275 µg/mL
[2]; co-administration with marizomib
  pharmacokinetic parameters: consistent with published parameters and not affected by co-administration
[2]; second value printed for Day 1
  mean Cmax: 379 µg/mL
[3]; Field (CABARET), All Pts
  6 mo Overall Survival: 61%
  6 mo Progression Free Survival: 18%
  9 mo Overall Survival: 39%
  9 mo Progression Free Survival: 6%
  12 Mo. Overall Survival: 24%
[3]; [5]
  6 mo Overall Survival: 18%
  9 mo Overall Survival: 30%
  9 mo Progression Free Survival: 0%
  12 Mo. Overall Survival: 10%
  12 Mo. Progression Free Survival: 0%
[3]; [6]
  6 mo Overall Survival: 58%
  6 mo Progression Free Survival: 38%
  9 mo Overall Survival: 40%
  9 mo Progression Free Survival: 22%
  12 Mo. Overall Survival: 24%
  12 Mo. Progression Free Survival: 10%
[3]; [7]
  6 mo Overall Survival: 25%
  6 mo Progression Free Survival: 10%
  9 mo Progression Free Survival: 0%
  12 Mo. Progression Free Survival: 0%
[3]; Taal (BELOB), All Pts
  6 mo Overall Survival: 62%
  6 mo Progression Free Survival: 16%
  9 mo Overall Survival: 45%
  9 mo Progression Free Survival: 8%
  12 Mo. Overall Survival: 26%
[3]; Taal (BELOB), Methylated
  6 mo Overall Survival: 83%
  6 mo Progression Free Survival: 33%
  9 mo Overall Survival: 67%
  9 mo Progression Free Survival: 22%
  12 Mo. Overall Survival: 56%
[3]; Taal (BELOB), Unmethylated
  6 mo Overall Survival: 50%
  6 mo Progression Free Survival: 8%
  9 mo Progression Free Survival: 0%
  12 Mo. Overall Survival: 8%
  12 Mo. Progression Free Survival: 0%
[3]; Wick (EORTC 26101 P2), All Pts
  6 mo Progression Free Survival: 14%
  9 mo Progression Free Survival: 9%
  12 Mo. Progression Free Survival: 8%
[3]; [8]
  6 mo Progression Free Survival: 25%
  9 mo Progression Free Survival: 9%
  12 Mo. Progression Free Survival: 9%
[3]; [9]
  6 mo Progression Free Survival: 10%
  9 mo Progression Free Survival: 10%
  12 Mo. Progression Free Survival: 10%
[3]; recurrent G4 MG, BEV alone
  6-month progression-free survival (PFS) rate: ~43%
  median overall survival (OS): ~9 months
[4]
  Cmax: 284 µg/mL
